pIC50: −log10 of the molar value.
Columns and labels:
TNFα [1] = assay: TNFα inhibition test (Moreira et al.); type: cell-based; details: for pIC50: read-out: TNF IC50; for TNF Potency: relative potency, compound 1 = 100.00
Text: A series of hydroxamic acid derivatives described in EP 901465 were subjected to the histone deacetylase (HDAC) and TNFα inhibition tests in accordance with the methods described by Lechner et al., Biochim Biophys. Acta 1996, 1296, 181-188 and Moreira A. L. et al., J. Exp. Med. 1993, […] respectively.

IFNγ [2] = assay: LPS-stimulated PBMC cytokine production in vitro: IFNγ (ELISA); details: Homo sapiens, 24 h, read-out: IFNγ IC50
Experimental: (§2) Interferon γ (IFNγ) was measured with a commercially available ELISA assay.

[3] = test system: inflammatory cytokines induced by LPS; assay: LPS-stimulated PBMC cytokine production, summary over all cytokines; details: Homo sapiens, read-out: IC50, synthesis of all the inflammatory cytokines induced by LPS
Experimental: as §2

IL-1β = assay: LPS-stimulated PBMC cytokine production in vitro: IL-1β (ECL); type: cell-based; details: Homo sapiens, LPS 10 ng/ml, 24 h
Experimental: (§1) Samples of peripheral blood or buffy coats from healthy volunteers were used. […] At the end of the treatment the pro-inflammatory cytokines TNFα, IL-1β were measured by means of an electrochemiluminescence assay (ECL) using specific commercial antibodies.

TNFα [4] = assay: LPS-stimulated PBMC cytokine production in vitro: TNFα (ECL); type: cell-based; details: Homo sapiens, LPS 10 ng/ml, 24 h
Experimental: as §1

IFNγ [5] = assay: IFNγ synthesis by PBMCs stimulated with IL-12 and IL-18 (ELISA); type: cell-based; details: Homo sapiens; PBMC, IL-12 10 ng/ml + IL-18 20 ng/ml, 48 h; read-out: IFNγ (from IL-12 + IL-18) IC50
Experimental: Cytokine IFNγ is produced by the T lymphocytes following their stimulation by pro-inflammatory cytokines, especially IL-12 and IL-18 (Dinarello C. A. and Moldawer L. L. Proinflammatory and anti-inflammatory cytokines in rheumatoid arthritis. A primer for clinicians. 2nd Edition, Amgen Inc., 2000).
At the end, the cells were stimulated for 48 hours in the presence of the compound by simultaneous addition of recombinant IL-12 (10 ng/ml) and recombinant IL-18 (20 ng/ml). The quantity of IFNγ produced was determined with a commercial ELISA assay.

Compound	pIC50 (TNFα [1])	TNF Potency (TNFα [1])	other results
CCN(CC)Cc1ccc2cc(COC(=O)Nc3ccc(C(=O)NO)cc3)ccc2c1 [Compound 1]	8.15	100.00	–
CCN(CC)Cc1ccc2cc(CCC(=O)Nc3ccc(C(=O)NO)cc3)ccc2c1 [Compound 2]	7.99	68.75	–
CCN(CC)Cc1ccc2cc(CNC(=O)Nc3ccc(C(=O)NO)cc3)ccc2c1 [Compound 4]	7.95	62.68	–
CCCN(CCC)Cc1ccc2cc(COC(=O)Nc3ccc(C(=O)NO)cc3)ccc2c1 [Compound 5]	7.90	55.28	–
CCCCN(CCCC)Cc1ccc2cc(COC(=O)Nc3ccc(C(=O)NO)cc3)ccc2c1 [Compound 8]	7.17	10.32	–
CC[N+]([O-])(CC)Cc1ccc2cc(COC(=O)Nc3ccc(C(=O)NO)cc3)ccc2c1 [Compound 15]	6.00	0.70	–
CC(/C=C/C(=O)NO)=C\[C@@H](C)C(=O)c1ccc(N(C)C)cc1 [TSA, trichostatin]	–	–	pIC50 (IFNγ [2]): 8.00; pIC50 [3]: 6.70 to 7.30; pIC50 (IL-1β): 7.00; pIC50 (TNFα [4]): 7.30; pIC50 (IFNγ [5]): 6.31

Second part, led by results:

pIC50 (TNFα [1])	Compound	TNF Potency (TNFα [1])	other results
7.99	CCN(CC)Cc1ccc(COC(=O)Nc2ccc(C(=O)NO)cc2)c2ccccc12 [Compound 3]	68.02	–
7.30	O=C(Nc1ccc(C(=O)NO)cc1)OCc1ccc2c(c1)OCO2 [Compound 6]	14.00	–
7.18	O=C(Nc1ccc(C(=O)NO)cc1)OCC1CCc2ccccc2C1 (centres unmarked) [Compound 7]	10.68	–
6.80	O=C(Nc1ccc(C(=O)NO)cc1)OCCC12CC3CC(CC(C3)C1)C2 [Compound 9]	4.40	–
6.80	O=C(Nc1ccc(C(=O)NO)cc1)OCCCc1ccccc1 [Compound 10]	4.40	–
6.80	O=C(Nc1ccc(C(=O)NO)cc1)OCc1ccc2ccccc2c1 [Compound 11]	4.40	–
6.64	O=C(Nc1ccc(C(=O)NO)cc1)OCCCc1ccccn1 [Compound 12]	3.04	–
6.57	O=C(Nc1ccc(C(=O)NO)cc1)OCCCc1ccncc1 [Compound 13]	2.59	–
6.52	O=C(CCCCc1ccccc1)Nc1ccc(C(=O)NO)cc1 [Compound 14]	2.33	–

— patent US20040157930A1, “Histone deacetylase enzyme-inhibiting derivatives of hydroxamic acid as new cytokine synthesis-inhibiting anti-inflammatory drugs” (priority 2001, published 2004)
